What follows are compounds tested against human sphingosine-1-phosphate receptor 1 (S1P1) (Homo sapiens, UniProt P21453) (assay: Inhibition of cAMP production (HTRF cAMP HiRange), S1P1 CHO-K1 cells). Settings: inhibition of cAMP production, S1P1; read-out: hS1P1 CAMP pEC50 (converted).
Assay type: cell-based
How it was run: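 Intracellular cAMP changes read by TR-FRET (HTRF HiRange, 1 h room temperature) after 30 min compound exposure at 37 °C. Cells: overnight-plated CHO-K1 stably expressing tagged human S1P1 with EA-β-arrestin2. Responses normalized to fingolimod.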

Chain of human sphingosine-1-phosphate receptor 1 (S1P1) (P21453 whole entry): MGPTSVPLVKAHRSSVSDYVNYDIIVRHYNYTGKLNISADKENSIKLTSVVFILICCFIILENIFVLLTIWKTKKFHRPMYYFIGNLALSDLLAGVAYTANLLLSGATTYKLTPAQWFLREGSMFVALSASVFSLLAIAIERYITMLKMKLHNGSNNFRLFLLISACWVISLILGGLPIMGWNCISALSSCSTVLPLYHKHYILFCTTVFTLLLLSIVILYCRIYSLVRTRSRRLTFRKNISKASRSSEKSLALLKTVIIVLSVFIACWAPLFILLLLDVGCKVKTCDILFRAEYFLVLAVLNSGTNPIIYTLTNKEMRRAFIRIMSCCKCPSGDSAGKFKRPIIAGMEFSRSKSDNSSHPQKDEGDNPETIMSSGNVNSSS

For `Cc1ccccc1-c1coc(-c2ccc3c(c2)nnn3C(C)C)n1` [Compound 433, 5-[4-(2-methylphenyl)-1,3-oxazol-2-yl]-1-(propan-2-yl)-1H-1,2,3-benzotriazole], which EC50 is on record?
The EC50 was under 316 nM.

`CC(C)n1nnc2cc(-c3nc4c(Br)cccc4o3)ccc21` [Compound 428, 4-bromo-2-(1-isopropylbenzotriazol-5-yl)-1,3-benzoxazole] was tested. Which EC50 did it give?
Its EC50 is over 316 nM.

With `CC(C)n1nnc2cc(-c3nc(-c4ccccc4C(F)(F)F)co3)ccc21` [Compound 432, 1-(propan-2-yl)-5-{4-[2-(trifluoromethyl)phenyl]-1,3-oxazol-2-yl}-1H-1,2,3-benzotriazole] as the compound, how does the EC50 read?
Its EC50 is under 316 nM.

Which EC50 does the source give for `COc1cccc(-c2coc(-c3ccc4c(c3)nnn4C(C)C)n2)c1` [Compound 385, 5-[4-(3-methoxyphenyl)-1,3-oxazol-2-yl]-1-(propan-2-yl)-H-1,2,3-benzotriazole] here?
Its EC50 is over 316 nM.

`COCCn1cc(-c2ccccc2C)cc1-c1ccc2c(c1)nnn2C(C)C` [Compound 534, 5-[1-(2-methoxyethyl)-4-(2-methylphenyl)-1H-pyrrol-2-yl]-1-(propan-2-yl)-1H-1,2,3-benzotriazole] was tested. Which EC50 did it give?
Its EC50 is over 316 nM.

For `Cc1cn(C)nc1-c1noc(-c2ccc3c(c2)nnn3C(C)C)n1` [Compound 519, 5-[3-(1,4-dimethyl-1H-pyrazol-3-yl)-1,2,4-oxadiazol-5-yl]-1-(propan-2-yl)-1H-1,2,3-benzotriazole], which EC50 is on record?
Its EC50 is under 316 nM.

For `CC(C)(O)Cn1nnc2cc(-c3nc(-c4cccc5cc[nH]c45)no3)ccc21` [Compound 577, 1-{5-[3-(1H-indol-7-yl)-1,2,4-oxadiazol-5-yl]-1H-1,2,3-benzotriazol-1-yl}-2-methylpropan-2-ol], which EC50 is on record?
Its EC50 is over 316 nM.

Which EC50 does the source give for `CC(C)Nc1ccc(-c2nc(-c3ccc4sc(N)nc4c3)no2)cc1C#N` [Compound 441, 5-(3-(2-aminobenzo[d]thiazol-5-yl)-1,2,4-oxadiazol-5-yl)-2-(isopropylamino) benzonitrile] here?
Its EC50 is under 316 nM.

How did the EC50 turn out when `Cc1ccc2oc(-c3ccc4c(c3)nnn4C(C)C)nc2c1` [Compound 419, 2-(1-isopropyl-1H-benzo[d][1,2,3]triazol-5-yl)-5-methyl-benzo[d]oxazole] was run?
The EC50 was under 316 nM.

How did the EC50 turn out when `Cc1ccccc1-c1cc(-c2ccc3c(c2)nnn3C(C)C)n(C)c1` [Compound 517, 5-[1-methyl-4-(2-methylphenyl)-1H-pyrrol-2-yl]-1-(propan-2-yl)-1H-1,2,3-benzotriazole] was run?
Its EC50 is over 316 nM.

`CC(C)Cn1nnc2cc(-c3nc4ccncc4o3)ccc21` [Compound 504, 2-(1-isobutyl-1H-benzo[d][1,2,3]triazol-5-yl)oxazolo[5,4-c]pyridine] was tested. Which EC50 did it give?
The EC50 was over 316 nM.

For `CC(C)(O)Cn1nnc2cc(-c3nc(-c4cocn4)no3)ccc21` [Compound 570, 2-methyl-1-{5-[3-(1,3-oxazol-4-yl)-1,2,4-oxadiazol-5-yl]-1H-1,2,3-benzotriazol-1-yl}propan-2-ol], which EC50 is on record?
The EC50 was over 316 nM.

Same assay, conditions: inhibition of cAMP production; potency; read-out: hS1P1 CAMP pEC50 (converted)

`COc1ccccc1-c1nnc(-c2ccc3c(c2)oc(=O)n3C)o1` [Compound 350, 6-[5-(2-methoxyphenyl)-1,3,4-oxadiazol-2-yl]-3-methyl-2,3-dihydro-1,3-benzoxazol-2-one] was tested. Which EC50 did it give?
The EC50 was over 316 nM.

Which EC50 does the source give for `COc1cncc(-c2nc(-c3ccc4c(c3)nnn4C(C)C)no2)c1` [Compound 272, 3-(1-isopropyl-1H-benzo[d][1,2,3]triazol-5-yl)-5-(5-methoxy-pyridin-3-yl)-1,2,4-oxadiazole] here?
Its EC50 is over 316 nM.

`COc1cccnc1-c1noc(-c2ccc3c(c2)nnn3C2CCCC2)n1` [Compound 203, 1-cyclopentyl-5-[3-(3-methoxy-pyridin-2-yl)-1,2,4-oxadiazol-5-yl]-1H-1,2,3-benzotriazole] was tested. Which EC50 did it give?
The EC50 was over 316 nM.

Which EC50 does the source give for `CC(C)n1ccc2cc(-c3nc(-c4cccc5c4OCO5)no3)ccc21` [Compound 326, 3-(benzo[d][1,3]dioxol-4-yl)-5-(1-isopropyl-1H-indol-5-yl)-1,2,4-oxadiazole] here?
The EC50 was over 316 nM.

Which EC50 does the source give for `OCCn1nnc2cc(-c3noc(-c4ccccc4Br)n3)ccc21` [Compound 238, 2-(5-(5-(2-bromo-phenyl)-1,2,4-oxadiazol-3-yl)-1H-benzo[d][1,2,3]triazol-1-yl)ethanol] here?
Its EC50 is over 316 nM.

For `N#Cc1cc(-c2nc(-c3ccc4c(c3)CCC(=O)N4)no2)ccc1NCC(F)F` [Compound 344, 2-[(2,2-difluoroethyl)amino]-5-[3-(2-oxo-1,2,3,4-tetrahydroquinolin-6-yl)-1,2,4-oxadiazol-5-yl]benzonitrile], which EC50 is on record?
The EC50 was under 316 nM.

`COCC1(COC)CC(=O)c2cc(-c3nc(-c4cccnc4)no3)ccc2O1` [Compound 186, 2,2-bis(methoxy-methyl)-6-[3-(pyridin-3-yl)-1,2,4-oxadiazol-5-yl]-3,4-dihydro-2H-1-benzopyran-4-one] was tested. Which EC50 did it give?
The EC50 was over 316 nM.

With `Cc1ccccc1Cc1noc(-c2ccc3c(c2)nnn3C(C)C)n1` [Compound 202, 5-{3-[(2-methyl-phenyl)methyl]-1,2,4-oxadiazol-5-yl}-1-(propan-2-yl)-1H-1,2,3-benzotriazole] as the compound, how does the EC50 read?
Its EC50 is over 316 nM.

`COc1ccccc1-c1nnc(-c2ccc3[nH]c(=O)oc3c2)o1` [Compound 349, 6-[5-(2-methoxyphenyl)-1,3,4-oxadiazol-2-yl]-2,3-dihydro-1,3-benzoxazol-2-one] was tested. Which EC50 did it give?
The EC50 was under 316 nM.

With `COc1cc(-c2nc(-c3ccc4c(c3)nnn4C(C)C)no2)ccn1` [Compound 116, 3-(1-isopropyl-1H-benzo[d][1,2,3]triazol-5-yl)-5-(2-methoxypyridin-4-yl)-1,2,4-oxadiazole] as the compound, how does the EC50 read?
The EC50 was over 316 nM.

For `CC(C)Oc1ccccc1-c1noc(-c2ccc3c(cnn3C(C)C)c2)n1` [Compound 334, 3-(2-isopropoxy-phenyl)-5-(1-isopropyl-1H-indazol-5-yl)-1,2,4-oxadiazole], which EC50 is on record?
Its EC50 is over 316 nM.

For `Cc1ccccc1-c1noc(-c2ccc3c(c2)nnn3CC(C)(C)O)n1` [Compound 139, 2-methyl-1-{5-[3-(2-methylphenyl)-1,2,4-oxadiazol-5-yl]-1H-1,2,3-benzotriazol-1-yl}propan-2-ol], which EC50 is on record?
The EC50 was under 316 nM.

`Cc1ccccc1C(C)c1noc(-c2ccc3c(c2)nnn3C(C)C)n1` (centres unmarked) [Compound 172, 5-{3-[1-(2-methyl-phenyl)ethyl]-1,2,4-oxadiazol-5-yl}-1-(propan-2-yl)-1H-1,2,3-benzotriazole] was tested. Which EC50 did it give?
The EC50 was over 316 nM.

How did the EC50 turn out when `Cc1ccc(-c2noc(-c3ccc4c(c3)nnn4C3CC3)n2)cn1` [Compound 87, 1-cyclopropyl-5-[3-(6-methylpyridin-3-yl)-1,2,4-oxadiazol-5-yl]-1H-1,2,3-benzotriazole] was run?
Its EC50 is over 316 nM.

`CCC1(CC)CC(=O)c2cc(-c3nc(-c4ccc(OC)cc4)no3)ccc2O1` [Compound 65, 2,2-diethyl-6-(3-(4-methoxyphenyl)-1,2,4-oxadiazol-5-yl)chroman-4-one] was tested. Which EC50 did it give?
Its EC50 is over 316 nM.

For `CCC1(CC)CC(=O)c2cc(-c3nc(-c4ccc(O)cc4)no3)ccc2O1` [Compound 72, 2,2-diethyl-6-[3-(4-hydroxyphenyl)-1,2,4-oxadiazol-5-yl]chroman-4-one], which EC50 is on record?
Its EC50 is under 316 nM.

`CC(C)n1nnc2cc(-c3nc(Cc4ccccc4)no3)ccc21` [Compound 88, 5-(3-benzyl-1,2,4-oxadiazol-5-yl)-1-(propan-2-yl)-1H-1,2,3-benzotriazole] was tested. Which EC50 did it give?
The EC50 was over 316 nM.

How did the EC50 turn out when `CCC1(CC)CC(=O)c2cc(-c3nc(-c4cncc(O)c4)no3)ccc2O1` [Compound 310, 2,2-diethyl-6-[3-(5-hydroxy-3-pyridyl)-1,2,4-oxadiazol-5-yl]chroman-4-one] was run?
Its EC50 is under 316 nM.

With `CC(C)n1nnc2cc(-c3nc(-c4ccccc4)no3)ccc21` [Compound 79, 5-(3-phenyl-1,2,4-oxadiazol-5-yl)-1-(propan-2-yl)-1H-1,2,3-benzotriazole] as the compound, how does the EC50 read?
Its EC50 is under 316 nM.

Which EC50 does the source give for `COc1cccc(-c2noc(-c3ccc4c(c3)nnn4C3CCCC3)n2)n1` [Compound 124, 1-cyclopentyl-5-[3-(6-methoxypyridin-2-yl)-1,2,4-oxadiazol-5-yl]-1H-1,2,3-benzotriazole] here?
Its EC50 is over 316 nM.

How did the EC50 turn out when `Cc1ccccc1-c1cnc(-c2ccc3c(c2)nnn3C(C)C)s1` [Compound 216, 2-(1-isopropyl-benzotriazol-5-yl)-5-(o-tolyl)thiazole] was run?
The EC50 was over 316 nM.

With `CC(=O)Nc1ccc(-c2noc(-c3ccc(NC(C)C)c(C#N)c3)n2)cc1` [Compound 316, N-(4-(5-(3-cyano-4-(isopropylamino)phenyl)-1,2,4-oxadiazol-3-yl)phenyl)acetamide] as the compound, how does the EC50 read?
The EC50 was under 316 nM.

Which EC50 does the source give for `COc1ccc(-c2coc(-c3ccc4c(c3)nnn4C(C)C)n2)cc1` [Compound 250, 5-[4-(4-methoxy-phenyl)-1,3-oxazol-2-yl]-1-(propan-2-yl)-1H-1,2,3-benzotriazole] here?
Its EC50 is over 316 nM.

How did the EC50 turn out when `Brc1ccccc1-c1nc(-c2ccc3c(c2)nnn3C2CCCCC2)no1` [Compound 115, 5-(2-bromophenyl)-3-(1-cyclohexyl-1H-benzo[d][1,2,3]triazol-5-yl)-1,2,4-oxadiazole] was run?
Its EC50 is under 316 nM.

With `CCC1(CC)CC(=O)c2cc(-c3nc(-c4ccccn4)no3)ccc2O1` [Compound 111, 2,2-diethyl-6-[3-(2-pyridyl)-1,2,4-oxadiazol-5-yl]chroman-4-one] as the compound, how does the EC50 read?
Its EC50 is over 316 nM.

With `CC(C)n1ccc2cc(-c3nc(-c4ccccc4Br)no3)ccc21` [Compound 322, 3-(2-bromophenyl)-5-(1-isopropyl-1H-indol-5-yl)-1,2,4-oxadiazole] as the compound, how does the EC50 read?
The EC50 was under 316 nM.

For `Clc1ccc(-c2noc(-c3ccc4c(c3)nnn4C3CCOCC3)n2)s1` [Compound 82, 5-[3-(5-chlorothiophen-2-yl)-1,2,4-oxadiazol-5-yl]-1-(oxan-4-yl)-1H-1,2,3-benzotriazole], which EC50 is on record?
Its EC50 is over 316 nM.

For `N#Cc1cc(-c2nc(-c3ccc4c(c3)CCC(=O)N4)no2)ccc1NCCF` [Compound 343, 2-[(2-fluoroethyl)amino]-5-[3-(2-oxo-1,2,3,4-tetrahydroquinolin-6-yl)-1,2,4-oxadiazol-5-yl]benzonitrile], which EC50 is on record?
The EC50 was under 316 nM.

How did the EC50 turn out when `CC(C)n1nnc2cc(-c3noc(-c4ccccc4C#N)n3)ccc21` [Compound 279, 2-(3-(1-isopropyl-1H-benzo[d][1,2,3]triazol-5-yl)-1,2,4-oxadiazol-5-yl)benzonitrile] was run?
The EC50 was over 316 nM.

From patent US20230114241A1, “METHODS OF TREATING EPILEPSY USING THE SAME” (Trevena, Inc., priority 2019, published 2023)
